± gives the standard deviation of the averaged measurements.
Key:
Assay in all cases: drug sensitivity score (DSS) (DSS score); higher = more sensitive (stronger growth inhibition); extreme values may be limits of the assay
[1] = test system: Ba/F3 P210-BCR-ABL1 RUNX1-/- (mouse)
Procedure, shortened: (§1)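 Mouse Ba/F3 cells, either CRISPR/Cas9-edited at a target exon or edited-control clones, were screened against a 528-compound library on pre-printed 384-well plates. Each compound was tested at five concentrations across a 10,000-fold range, with 10,000 cells per well in RPMI with 10% FBS for 72 h at 37 °C and 5% CO2. CellTiter-Glo luminescence was scaled between vehicle and positive-control wells, and each dose-response was summarised as a drug sensitivity score. Scores were averaged over two replicates.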

[2] = test system: Ba/F3 P210-BCR-ABL1 RUNX1-/mut (mouse)
Procedure, shortened: as §1

[3] = test system: Ba/F3 P210-BCR-ABL1 RUNX1wt/wt control (mouse)
Procedure, shortened: as §1

SMILES: CC(C)(C)C[C@@H]1N[C@@H](C(=O)N[C@H]2CC[C@H](O)CC2)[C@H](c2cccc(Cl)c2F)[C@]12C(=O)Nc1cc(Cl)ccc12
- drug sensitivity score [1]: 6.65 ± 1.3
- drug sensitivity score [2]: 6.95 ± 1.9
- drug sensitivity score [3]: 0.75 ± 0.35

SMILES: CC(C)(C)c1cc(NC(=O)Nc2ccc(Oc3ccnc4[nH]c(=O)cnc34)cc2F)n(-c2ccccc2)n1
- drug sensitivity score [1]: 25.9 ± 0.78
- drug sensitivity score [2]: 20.9 ± 0.49
- drug sensitivity score [3]: 17.4 ± 0.21

SMILES: CC(C)Oc1ccc(C(=O)N[C@H](CNC(=O)CN(C)C)Cc2ccc(-c3cn4cccc([C@H](C)O)c4n3)cc2)cc1Cl
- drug sensitivity score [1]: 10.2 ± 0.57
- drug sensitivity score [2]: 7.5 ± 2.4
- drug sensitivity score [3]: 2 ± 0.14

SMILES: CCOc1ccn(-c2ccc(F)cc2)c(=O)c1C(=O)Nc1ccc(Oc2ccnc(N)c2Cl)c(F)c1
- drug sensitivity score [1]: 0.1 ± 0.14
- drug sensitivity score [2]: 0
- drug sensitivity score [3]: 0

SMILES: CC[C@@H]1[C@H](F)C(=O)N[C@@H]1COc1nccc2cc(C(N)=O)c(OC)cc12
- drug sensitivity score [1]: 1.3 ± 0.42
- drug sensitivity score [2]: 0.9 ± 1.3
- drug sensitivity score [3]: 0.25 ± 0.35

SMILES: CCc1cncnc1N1CCN(Cc2nc3ccc(C(F)(F)F)cc3[nH]2)CC1
- drug sensitivity score [1]: 2 ± 1.1
- drug sensitivity score [2]: 0.8 ± 1.1
- drug sensitivity score [3]: 0

SMILES: CCn1c(-c2nonc2N)nc2c(C#CC(C)(C)O)ncc(OC[C@H]3CCCNC3)c21
- drug sensitivity score [1]: 0.75 ± 1.1
- drug sensitivity score [2]: 1.45 ± 2
- drug sensitivity score [3]: 0

SMILES: CCn1c(-c2nonc2N)nc2cnc(Oc3cccc(NC(=O)c4ccc(OCCN5CCOCC5)cc4)c3)cc21
- drug sensitivity score [1]: 5.55 ± 1.1
- drug sensitivity score [2]: 4.25 ± 2.3
- drug sensitivity score [3]: 1.45 ± 0.071

SMILES: CCn1c(C(=O)N(C2CC2)C2CC2)cc2c3c(ncn3C)c(Nc3cc(C)n(C)n3)nc21
- drug sensitivity score [1]: 0.35 ± 0.49
- drug sensitivity score [2]: 0
- drug sensitivity score [3]: 0

SMILES: CCn1cc(-c2ccnc3[nH]c(-c4cccc(CN(C)C)c4)cc23)c(-c2ccc(NC(=O)N(C)C)cc2)n1
- drug sensitivity score [1]: 14.6 ± 2.2
- drug sensitivity score [2]: 9.15 ± 1.5
- drug sensitivity score [3]: 0.3 ± 0.28

SMILES: CN(C)CC#Cc1ccc(OCCCc2sc(N3CCc4cccc(C(=O)Nc5nc6ccccc6s5)c4C3)nc2C(=O)O)c(F)c1
- drug sensitivity score [1]: 5.55 ± 0.071
- drug sensitivity score [2]: 5.95 ± 4.7
- drug sensitivity score [3]: 3 ± 0.14

SMILES: CN(c1ncccc1CNc1nc(Nc2ccc3c(c2)CC(=O)N3)ncc1C(F)(F)F)S(C)(=O)=O
- drug sensitivity score [1]: 5.7 ± 0.28
- drug sensitivity score [2]: 7.25 ± 1.9
- drug sensitivity score [3]: 4.8 ± 0.57

SMILES: CN1CCN(C2CCC(n3cc(-c4ccc(Oc5ccccc5)cc4)c4c(N)ncnc43)CC2)CC1 (stereo not given)
- drug sensitivity score [1]: 23.4 ± 0.28
- drug sensitivity score [2]: 17.9 ± 1.1
- drug sensitivity score [3]: 16.6 ± 0.71

SMILES: CNC(=O)c1ccc(C)c(-n2c(C)cc(OCc3ccc(F)cc3F)c(Br)c2=O)c1
- drug sensitivity score [1]: 0
- drug sensitivity score [2]: 0.05 ± 0.071
- drug sensitivity score [3]: 0

SMILES: CNC(=O)c1ccccc1Nc1nc(Nc2ccc3c(c2OC)CCC[C@H](N2CCN(CCO)CC2)C3)ncc1Cl
- drug sensitivity score [1]: 8.75 ± 0.21
- drug sensitivity score [2]: 8.65 ± 0.21
- drug sensitivity score [3]: 8 ± 0.14

SMILES: CNS(=O)(=O)Nc1nccc(Cc2c(C)c3ccc(Oc4ncccn4)cc3oc2=O)c1F
- drug sensitivity score [1]: 2.4 ± 0.14
- drug sensitivity score [2]: 0.3 ± 0.42
- drug sensitivity score [3]: 0

SMILES: CNc1nc(-c2ccc3c(N)n[nH]c3c2)cc(N2C[C@@H](C(=O)NC3CCCCC3)CC[C@H]2C)n1
- drug sensitivity score [1]: 7.15 ± 0.35
- drug sensitivity score [2]: 4 ± 2.3
- drug sensitivity score [3]: 0

SMILES: CNc1ncc2cc(-c3cc(NC(=O)NCCC(C)(C)C)c(F)cc3C)c(C)nc2n1
- drug sensitivity score [1]: 22.3 ± 0.28
- drug sensitivity score [2]: 15.6 ± 0.64
- drug sensitivity score [3]: 9.45 ± 0.21

SMILES: CONC(=O)c1ccccc1Nc1cc(Nc2cc(C)nn2C(C)C)ncc1Cl
- drug sensitivity score [1]: 0.15 ± 0.21
- drug sensitivity score [2]: 0.15 ± 0.21
- drug sensitivity score [3]: 0

SMILES: CO[C@@H](C)Cn1c(=O)n(C)c2cnc3ccc(-c4cncc(C(C)(C)O)c4)cc3c21
- drug sensitivity score [1]: 12.9 ± 0.14
- drug sensitivity score [2]: 14.3 ± 1.4
- drug sensitivity score [3]: 10.25 ± 0.071

SMILES: COc1cc2ncnc(Oc3cccc(NC(=O)Nc4cc(C(C)(C)C(F)(F)F)on4)c3)c2cc1OC
- drug sensitivity score [1]: 15.8 ± 22
- drug sensitivity score [2]: 13.2 ± 19
- drug sensitivity score [3]: 21.6 ± 0.49

SMILES: COc1ccc(Cn2ccc3ccc(C(=O)NO)cc32)cc1
- drug sensitivity score [1]: 3.15 ± 1.6
- drug sensitivity score [2]: 4.25 ± 0.78
- drug sensitivity score [3]: 0

SMILES: COc1ccc2[nH]cc(/C=C3\C(=O)Nc4ccc(NC(=O)CCN5CCCCC5)cc43)c2c1
- drug sensitivity score [1]: 14.8 ± 2.5
- drug sensitivity score [2]: 15.2 ± 4.4
- drug sensitivity score [3]: 6.05 ± 1.1

SMILES: C[C@@H](Oc1cc(-n2cnc3ccc(CN4CCN(C)CC4)cc32)sc1C(N)=O)c1ccccc1C(F)(F)F
- drug sensitivity score [1]: 22.2 ± 1.5
- drug sensitivity score [2]: 20.6 ± 2.3
- drug sensitivity score [3]: 15.8

SMILES: C[C@@H](Oc1ccc2[nH]nc(/C=C/c3cnn(CCO)c3)c2c1)c1c(Cl)cncc1Cl
- drug sensitivity score [1]: 14.5 ± 3.5
- drug sensitivity score [2]: 8.95 ± 1.5
- drug sensitivity score [3]: 6.65 ± 0.21

SMILES: C[C@@H]1CN(CC(=O)Nc2ccc3c(c2)Cc2cccc(-c4cc(=O)cc(N5CCOCC5)o4)c2S3)C[C@H](C)O1
- drug sensitivity score [1]: 6.15 ± 1.8
- drug sensitivity score [2]: 5.3 ± 1.3
- drug sensitivity score [3]: 3.05 ± 0.49

SMILES: C[C@H]1C[C@@H](n2c(Nc3ccc(OC(F)(F)F)cc3)nc3cc(CCC(=O)O)ccc32)CC(C)(C)C1
- drug sensitivity score [1]: 0.8 ± 1.1
- drug sensitivity score [2]: 1.4 ± 2
- drug sensitivity score [3]: 0

SMILES: C[C@H]1Oc2cc(cnc2N)-c2c(nn(C)c2C#N)CN(C)C(=O)c2ccc(F)cc21
- drug sensitivity score [1]: 0.5 ± 0.71
- drug sensitivity score [2]: 2.2 ± 3.1
- drug sensitivity score [3]: 0

SMILES: Cc1c(-c2c(-c3ccc(F)o3)sc3ncnc(O[C@H](Cc4ccccc4OCc4ccnn4CC(F)(F)F)C(=O)O)c23)ccc(OCCN2CCN(C)CC2)c1Cl
- drug sensitivity score [1]: 1.7 ± 2.4
- drug sensitivity score [2]: 3.45 ± 4.9
- drug sensitivity score [3]: 0

SMILES: Cc1c(-c2ccc(N3CCc4cccc(C(=O)Nc5nc6ccccc6s5)c4C3)nc2C(=O)O)cnn1CC12CC3CC(CC(C3)C1)C2
- drug sensitivity score [1]: 0
- drug sensitivity score [2]: 0
- drug sensitivity score [3]: 0

SMILES: Cc1c(Cn2c(C)nc3c(C(=O)O)cc(N4CCOCC4)cc32)cccc1C(F)(F)F
- drug sensitivity score [1]: 0
- drug sensitivity score [2]: 0
- drug sensitivity score [3]: 0

SMILES: Cc1ccc(C(=O)N(CCCN)[C@@H](c2oc3cc(Cl)ccc3c(=O)c2Cc2ccccc2)C(C)C)cc1
- drug sensitivity score [1]: 9.5 ± 6.1
- drug sensitivity score [2]: 6.65 ± 4.7
- drug sensitivity score [3]: 1.9 ± 0.14

SMILES: Cc1cccc(CC(=O)N2CCc3c2ccc(-c2cn(C)c4ncnc(N)c24)c3F)n1
- drug sensitivity score [1]: 1.85 ± 0.49
- drug sensitivity score [2]: 0.55 ± 0.21
- drug sensitivity score [3]: 2.45 ± 0.35

SMILES: Cc1nc(Nc2n[nH]c3c2CN(C(=O)N[C@H](CN(C)C)c2ccccc2)C3(C)C)c2sccc2n1
- drug sensitivity score [1]: 40.15 ± 0.35
- drug sensitivity score [2]: 37.2 ± 0.64
- drug sensitivity score [3]: 24.85 ± 0.071

SMILES: Cc1ncc(Cl)cc1NCc1ccc(C(=O)N[C@@H](CC2CCCC2)C(=O)NC2CC2)s1
- drug sensitivity score [1]: 4.65 ± 0.21
- drug sensitivity score [2]: 4 ± 4.5
- drug sensitivity score [3]: 0

SMILES: Cc1nn(C)c(COc2ccc(N3CCN(S(=O)(=O)N(C)C)CC3)cc2)c1-c1cccc2c(CCCOc3cccc4ccccc34)c(C(=O)O)n(CCN3CCOCC3)c12
- drug sensitivity score [1]: 6.9 ± 0.85
- drug sensitivity score [2]: 6.6 ± 0.14
- drug sensitivity score [3]: 6.65 ± 0.64

SMILES: Cn1cc(-c2ccc(F)c(C(F)(F)F)c2)nc1C1CCN(c2ncnc3[nH]ncc23)CC1
- drug sensitivity score [1]: 1.55 ± 1.3
- drug sensitivity score [2]: 0.7 ± 0.99
- drug sensitivity score [3]: 0

SMILES: N#Cc1ccc(COC[C@H]2O[C@@H](n3c(NCc4ccc(Cl)c(Cl)c4)nc4c(N)ncnc43)[C@H](O)[C@@H]2O)cc1
- drug sensitivity score [1]: 9.1 ± 1.8
- drug sensitivity score [2]: 11.2 ± 4
- drug sensitivity score [3]: 3.55 ± 0.071

SMILES: NCC(=O)Nc1ccc(-n2nc(C(F)(F)F)cc2-c2ccc3c(ccc4ccccc43)c2)cc1
- drug sensitivity score [1]: 0.6 ± 0.85
- drug sensitivity score [2]: 0
- drug sensitivity score [3]: 0

SMILES: NC[C@@](O)(c1ccc(Cl)cc1)c1ccc(-c2cn[nH]c2)cc1
- drug sensitivity score [1]: 1.25 ± 1.8
- drug sensitivity score [2]: 0.05 ± 0.071
- drug sensitivity score [3]: 1.55 ± 0.78

SMILES: Nc1nccc(-c2c(-c3ccc(F)cc3)ncn2C2CCCCC2)n1
- drug sensitivity score [1]: 0.05 ± 0.071
- drug sensitivity score [2]: 0
- drug sensitivity score [3]: 0

SMILES: Nc1ncnc2c1c(COc1cccc(Cl)c1)nn2C1CCOCC1
- drug sensitivity score [1]: 1.6 ± 1.1
- drug sensitivity score [2]: 1.05 ± 1.1
- drug sensitivity score [3]: 0.05 ± 0.071

SMILES: O=C(NC[C@H](O)CN1CCc2ccccc2C1)c1cc(NC2COC2)ncn1
- drug sensitivity score [1]: 7.8 ± 1.3
- drug sensitivity score [2]: 5.2 ± 3.5
- drug sensitivity score [3]: 0

SMILES: O=C(NCc1ccncc1)C12CC3CC(C1)CC(c1ccc(Cl)cc1)(C3)C2
- drug sensitivity score [1]: 4.7 ± 0.57
- drug sensitivity score [2]: 3.3 ± 1.8
- drug sensitivity score [3]: 2.8 ± 0.85

SMILES: O=C(NOC[C@H](O)CO)c1ccc(F)c(F)c1Nc1ccc(I)cc1F
- drug sensitivity score [1]: 7.95 ± 0.92
- drug sensitivity score [2]: 3.85 ± 1.1
- drug sensitivity score [3]: 0.2 ± 0.28

SMILES: O=C(Nc1ccc2[nH]nc(-c3ccncc3)c2c1)[C@@H]1CCN(CC(=O)N2CCN(c3ccc(-c4ncccn4)cc3)CC2)C1
- drug sensitivity score [1]: 17.8 ± 1.6
- drug sensitivity score [2]: 10.7 ± 1.4
- drug sensitivity score [3]: 5.1 ± 1.3

SMILES: O=C(O)c1ccc(-c2c[nH]c3ncc(-c4ccccc4)cc23)cc1C1CCCC1
- drug sensitivity score [1]: 2.8 ± 0.57
- drug sensitivity score [2]: 2.5 ± 0.28
- drug sensitivity score [3]: 0.85 ± 0.35

SMILES: O=C(O)c1ccc(CN2CCC(CN[C@@H]3C[C@H]3c3ccccc3)CC2)cc1
- drug sensitivity score [1]: 1.1 ± 1.1
- drug sensitivity score [2]: 0
- drug sensitivity score [3]: 0

SMILES: O=C1Cc2cc(C(=O)NC3C[C@H]4CC[C@@H](C3)N4S(=O)(=O)CC3CCN(CCCC(F)(F)F)CC3)c(Cl)cc2N1 (stereo not given in full)
- drug sensitivity score [1]: 0
- drug sensitivity score [2]: 0.05 ± 0.071
- drug sensitivity score [3]: 1.35 ± 1.9

SMILES: O=c1[nH]c(C2CCCN2)nc2c1oc1ccc(Cl)cc12 (stereo not given)
- drug sensitivity score [1]: 7.1 ± 1.1
- drug sensitivity score [2]: 2.3 ± 2.3
- drug sensitivity score [3]: 0

Source: the supplement of paper PMC8024199
